Results reported in patent US20030162727A1, “Use of cyp1b1inhibitors for treating cancer” (priority 2000, published 2003).
“And” between values parts separate entries of the source, which are not always exact repeats. Equal entries are not always repeated. Where two headings read alike, the source gives them in different places.

Assays:
CYP1B1 [1] = biological target: T1, CYP1B1 (Homo sapiens, UniProt Q16678); assay: Inhibition of EROD activity mediated by cDNA expressed cytochrome 1B1; settings: for Ki: Ki Values, Dixon re-plots of EROD activity, mean; for inhibition at 100 μM: human, pH 7.4
T1 sequence (Q16678 1-543): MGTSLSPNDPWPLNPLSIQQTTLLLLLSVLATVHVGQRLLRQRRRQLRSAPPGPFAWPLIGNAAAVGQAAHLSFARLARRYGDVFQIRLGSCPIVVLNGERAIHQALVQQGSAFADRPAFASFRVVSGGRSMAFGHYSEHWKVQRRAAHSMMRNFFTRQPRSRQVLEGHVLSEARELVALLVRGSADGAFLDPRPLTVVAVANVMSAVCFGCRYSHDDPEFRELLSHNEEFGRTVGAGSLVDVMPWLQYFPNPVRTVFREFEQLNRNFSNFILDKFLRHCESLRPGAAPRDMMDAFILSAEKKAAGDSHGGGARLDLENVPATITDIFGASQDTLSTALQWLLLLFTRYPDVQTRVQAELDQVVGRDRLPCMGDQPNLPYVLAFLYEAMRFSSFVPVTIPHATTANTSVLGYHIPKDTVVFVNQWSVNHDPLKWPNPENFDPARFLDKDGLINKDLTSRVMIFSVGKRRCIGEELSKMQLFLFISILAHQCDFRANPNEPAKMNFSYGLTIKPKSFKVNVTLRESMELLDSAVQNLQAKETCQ
Description: Recent immunohistochemical analysis of P4501B1 protein in a variety of solid tumours identified tumour-specific enzyme expression (Murray et al, 1998). This provides a mechanism of resistance to currently used anticancer agents, as well as, an approach for targeted prodrug therapy. 7-ethoxyresorufin deethylase activity (EROD) was used to define interactions with cytochrome 1B1 (CYP1B1). 7-Ethoxyresorufin is a known substrate for P4501B1. […] For this purpose, inhibition constants (Ki) have been calculated using in vitro kinetics from CYP1B1-mediated EROD activity. EROD activity and assay has been described previously by various authors (Lubet et al., 1985, Arch. Biochem. Biophys. 238: pp 43-48; Gentest Corporation, 6 Henshaw St., Woburn, Mass. 01801 USA, data sheet given with CYP1B1, catalogue number P220). 7-Ethoxyresorufin is enzymatically deethylated to a product called resorufin. The appearance of resorufin was monitored by a fluorescence detector set at 550 nm and 582 nm (excitation and emission wavelengths). […] Incubations contained: phosphate buffer at pH 7.4, 7-ethoxyresorufin, CYP1B1 Supersomes from Gentest Co (catalogue number P220) and nicotine adenine dinucleotide phosphate (NADP) as cofactor.
The metabolism of anti-cancer drugs by CYP1B1 was studied using an inhibition of EROD assay. […] Ki values were determined by the Dixon's replots: see Table 2.

in vitro = settings: Chinese hamster
Protocol: (§1) A Chinese hamster […] fibroblast cell line (V79MZ) and a clone expressing human CYP1B1 (V79MZh1B1), were grown at 37° C., 5%CO2 and at 90% saturated humidity, in DMEM (Dulbecco's modified eagles medium) high glucose type supplemented with 1 mM sodium pyruvate, 10% fetal calf serum, 100 U penicillin/ml and 100 μg streptomycin/ml. Neither cell line expresses endogenous P450s, although cytochrome P450 reductase is present in both cell lines. The parental and CYP1B1 expressing cell lines double in cell number every 10-12 h and were sub-cultured at 1:50 ratio (i.e. 1 ml of cells to 50 ml of fresh media) every 4-5 days. The cells were not allowed to reach confluency at any time, to ensure optimal cell physiological conditions and maximal cytochrome P450 activity. Cells were routinely used at 3rd-5th passage for all experiments.
(§2) Docetaxel was obtained from Rhone-Poulenc Rorer. Optimal growth conditions were established. The same conditions were used for both cell lines; V79MZ and V79MZh1B1 cells at 60-80% confluence were harvested and seeded at 0.5-1×10^3 cells per well in 96 well culture plates. […] Cells treated with solvent alone acted as a negative control.
(§3) Enzyme inhibition studies were undertaken by co-administration of docetaxel and the known P450 CYP1 inhibitor ANF (Sigma) at different concentration in the media. Stock solutions of ANF (1 mM, 10 mM and 100 mM) were dissolved in DMSO and added to the media to give final concentrations of 1 μM, 10 μM and 100 μM ANF (in each case the final concentration of DMSO in media was 0.1%). Following 24 h exposure to each drug (with or without inhibitor), the media were removed and replaced with fresh media without drug. In this study, cells were then grown for three doubling times (36 h) with the media changed at 24 hr. […] Media were removed from the wells and replaced with 200 μl of fresh media, followed by addition of 50 μl of MTT solution (50 mg/ml of MTT (Sigma) in sterile PBS), the cells were incubated at 37° C. in a humidified atmosphere with 5%CO2/95% air for 4 h. The MTT containing media was then removed and 200 μl of DMSO plus 25 μl of glycine buffer (0.1 M glycine/0.1 M NaCl pH 10.5) added to the cells in each well. This procedure overcomes any effect that cell density or culture medium may have on the absorption spectrum. The absorbance of the formazan produced by the viable cells was measured once for each well at 540 nm on a Labsystems EMS microplate reader (Life Sciences International). To calculate the cell viability cells treated with solvent alone were assigned a value of 100% absorbance indicating zero cytotoxicity, i.e. 100% viability. The cytotoxic profile of each drug was evaluated in triplicate 96 well plates. Each plate included several controls (media only, cells only and cells treated with solvent alone). The 96 well plate format allowed eight concentrations of the appropriate drug per plate, with eight replicates (i.e. eight separate wells) per drug concentration, i.e. 8 measurements of absorbance for each concentration of drug per plate. There were three triplicate plates per experiment resulting in a total of 24 measurements of absorbance per concentration of drug.

V79MZh1B1 cells = assay: in vitro; settings: for cytotoxicity in CYP1B1 expressing V79MZh1B1 cells: 24 h exposure, ANF at 1, 10 and 100 μM
Protocol: as §1, §2, §3

V79MZ cells = assay: cells; settings: for IC50: read-out: IC50 V79MZ (control vector)
Protocol: as §1, §2, §3

CYP1B1 [2] = biological target: T1, CYP1B1; assay: Biotransformation studies with CYP1B1; settings: metabolites produced by CYP1B1 incubation but not control incubations
[3] = fold less cytotoxic than paclitaxel; cited from earlier work
[4] = tested on: CYP1B1 in kidney tumour samples; assay: Kidney tumour assay, EROD metabolism with and without inhibitor; type: biochemical
Protocol: The effect of a CYP1B1 inhibitor was confirmed in an assay using kidney tumour samples. A buffer and NADP regenerating system was allowed to equilibrate at 37° C. and EROD (5 μM final concentration) was then added. This was followed by the addition of either P450 supersomes (control) or the appropriate tumour sample (1 mg). Supersomes were incubated for 15 minutes and tumour samples for 40 minutes.

[5] = tested on: CYP1B1, CYP1A1, and CYP1A2
CYP1B1, CYP1A1, CYP1A2 = assay: in vitro; settings: human
CYP1A1 = biological target: T2, CYP1A1 (Homo sapiens, UniProt P04798); assay: Flutamide 2-hydroxylation and inhibition, CYP1A1 compared with CYP1B1; type: biochemical; settings: 2-hydroxylation of flutamide; times higher than CYP1B1
T2 sequence (P04798 1-512): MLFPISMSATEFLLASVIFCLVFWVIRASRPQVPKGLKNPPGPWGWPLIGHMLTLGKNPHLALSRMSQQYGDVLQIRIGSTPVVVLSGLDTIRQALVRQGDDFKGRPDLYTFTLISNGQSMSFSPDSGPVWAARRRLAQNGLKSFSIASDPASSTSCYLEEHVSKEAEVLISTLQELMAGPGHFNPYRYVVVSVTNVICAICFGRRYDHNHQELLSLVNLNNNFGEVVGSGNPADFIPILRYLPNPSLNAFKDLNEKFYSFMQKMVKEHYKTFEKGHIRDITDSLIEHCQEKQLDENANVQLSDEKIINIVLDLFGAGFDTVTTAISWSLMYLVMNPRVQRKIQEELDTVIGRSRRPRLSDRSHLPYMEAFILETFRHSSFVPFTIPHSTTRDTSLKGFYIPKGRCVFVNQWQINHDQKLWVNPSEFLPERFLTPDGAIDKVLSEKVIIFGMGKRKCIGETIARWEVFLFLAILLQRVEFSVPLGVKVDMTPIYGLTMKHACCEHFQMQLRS

[6] = Cricetulus griseus, V79MZ, 24 h
[7] = 24 h drug exposure, MTT, concentration at which 50% of cells are viable

CC/C(=C(\c1ccccc1)c1ccc(OCCN(C)C)cc1)c1ccccc1 [Tamoxifen]
Ki (CYP1B1 [1]): 5 µM and 5.02 µM

CC(=O)O[C@@]12CO[C@@H]1C[C@H](O)[C@@]1(C)C(=O)[C@H](O)C3=C(C)[C@@H](OC(=O)[C@H](O)[C@@H](NC(=O)OC(C)(C)C)c4ccccc4)C[C@@](O)([C@@H](OC(=O)c4ccccc4)[C@H]21)C3(C)C [Docetaxel]
IC50 at 24 h (in vitro): 0.1 µM
difference in cytotoxicity between CYP1B1 expressing and non-expressing cells (V79MZh1B1 cells): at least four-fold
Inhibition Type (CYP1B1 [1]): competitive
Ki (CYP1B1 [1]): 28 µM
inhibition at 100 μM (CYP1B1 [1]): 53 to 99%
IC50 (V79MZ cells; [6]): 0.022 µM

N.N.O=C([O-])C1(C(=O)[O-])CCC1.[Pt+2] [Carboplatin]
difference in cytotoxicity between CYP1B1 expressing and non-expressing cells (V79MZh1B1 cells; V79MZh1B1 compared with V79MZ, MTT): no significant difference
IC50 (V79MZh1B1 cells; read-out: IC50 V79MZhB1, 24 h drug exposure, MTT, CYP1B1 expressing cells): 100 µM
IC50 (V79MZ cells; [7]): 80 µM

O=c1[nH]cc(F)c(=O)[nH]1 [5-Fluorouracil]
IC50 at 24 h (in vitro): 80 µM
difference in cytotoxicity between CYP1B1 expressing and non-expressing cells (V79MZh1B1 cells): no significant difference
IC50 (V79MZ cells; [6]): 70 µM

COc1cccc2c1C(=O)c1c(O)c3c(c(O)c1C2=O)C[C@@](O)(C(=O)CO)C[C@@H]3O[C@H]1C[C@H](N)[C@H](O)[C@H](C)O1 [Doxorubicin]
IC50 at 24 h (in vitro): 0.09 µM
difference in cytotoxicity between CYP1B1 expressing and non-expressing cells (V79MZh1B1 cells): no significant difference
Ki (CYP1B1 [1]): 2.6 µM and 2.58 µM
inhibition at 100 μM (CYP1B1 [1]): 53 to 99%
IC50 (V79MZ cells; [6]): 0.08 µM

C[C@]12CC[C@H]3[C@@H](CCC4=CC(=O)CC[C@@]43C)[C@@H]1CC[C@@H]2O [Testosterone]
Inhibition Type (CYP1B1 [1]): competitive

CC(=O)O[C@H]1C(=O)[C@@]2(C)[C@H]([C@H](OC(=O)c3ccccc3)[C@]3(O)C[C@H](OC(=O)[C@H](O)[C@@H](NC(=O)c4ccccc4)c4ccccc4)C(C)=C1C3(C)C)[C@]1(OC(C)=O)CO[C@@H]1C[C@@H]2O [Paclitaxel]
difference in cytotoxicity between CYP1B1 expressing and non-expressing cells (V79MZh1B1 cells): no significant difference
Ki (CYP1B1 [1]): 7.85 µM
inhibition at 100 μM (CYP1B1 [1]): 53 to 99%
IC50 (V79MZ cells; [6]): 0.035 µM
biotransformation by CYP1B1 (CYP1B1 [2]): biotransformed by CYP1B1

CC(=O)N1CCN(c2ccc(OCC3COC(Cn4ccnc4)(c4ccc(Cl)cc4Cl)O3)cc2)CC1 (stereo not drawn) [Ketoconazole]
Inhibition Type (CYP1B1 [1]): non-competitive
Ki (CYP1B1 [1]): 0.3 µM and 0.27 µM

O=P1(N(CCCl)CCCl)NCCCO1 (stereo not drawn) [Cyclophosphamide]
cytotoxicity in CYP1B1 expressing V79MZh1B1 cells (V79MZh1B1 cells; MTT): No cytotoxicity
inhibition of CYP1B1 activity, initial screening, in words (CYP1B1 [1]; initial screening, 1 μM ethoxyresorufin, 100 μM agent): did not inhibit CYP1B1 activity
cytotoxicity in parental V79MZ cells (V79MZ cells; 24 h exposure, MTT, ANF at 1, 10 and 100 μM): No cytotoxicity

CC(=O)O[C@H]1C(=O)[C@@]2(C)[C@H]([C@H](OC(=O)c3ccccc3)[C@]3(O)C[C@H](OC(=O)[C@H](O)[C@@H](NC(=O)c4ccccc4)c4ccccc4)C(C)=C1C3(C)C)[C@]1(OC(C)=O)CO[C@@H]1[C@@H](O)[C@@H]2O [6-hydroxytaxol]
cytotoxicity relative to parent compound paclitaxel [3]: 30 fold

O=c1cc(-c2ccccc2)oc2c1ccc1ccccc12 [α-naphthoflavone]
cytotoxicity in CYP1B1 expressing V79MZh1B1 cells (V79MZh1B1 cells; MTT): Neither cell line (parental or CYP1B1 expressing) showed cytotoxicity
CYP1B1 activity in metabolising EROD ([4]; kidney tumour Sample 1, plus 10 nM ANF (252 without)): 145 fmol/min/mg protein
CYP1B1 activity in metabolising EROD ([4]; kidney tumour Sample 2, plus 10 nM ANF (993 without)): 470 fmol/min/mg protein
CYP1B1 activity in metabolising EROD ([4]; kidney tumour Sample 3, plus 10 nM ANF (880 without)): 570 fmol/min/mg protein

C[C@]12CC[C@@H]3c4ccc(O)cc4CC[C@H]3[C@@H]1CC[C@@H]2O [Estradiol]
Inhibition Type (CYP1B1 [1]): competitive

CC(C)C(=O)Nc1ccc([N+](=O)[O-])c(C(F)(F)F)c1 [Flutamide]
inhibition type for CYP1B1, CYP1A1, and CYP1A2 activities [5]: competitive
Ki (CYP1B1, CYP1A1, CYP1A2): 1 to 10.3 µM
Inhibition Type (CYP1B1 [1]): competitive
Ki (CYP1B1 [1]): 1 µM and 0.99 µM
inhibition at 100 μM (CYP1B1 [1]): 53 to 99%
Km for CYP1A1 relative to CYP1B1 (CYP1A1): 5 times
biotransformation by CYP1B1 (CYP1B1 [2]): biotransformed by CYP1B1

COc1cccc2c1C(=O)c1c(O)c3c(c(O)c1C2=O)C[C@@](O)(C(C)=O)C[C@@H]3O[C@H]1C[C@H](N)[C@H](O)[C@H](C)O1 [Daunomycin]
Ki (CYP1B1 [1]): 2.1 µM and 2.12 µM
inhibition at 100 μM (CYP1B1 [1]): 53 to 99%

N.N.[Cl][Pt][Cl] [Cisplatin]
IC50 (V79MZ cells; [7]): 4.4 µM
